What was measured:
Format in all cases: cell-based
HCT-116 cells = experiment: Test for inhibiting sphere-forming ability of cancer cells; details: Homo sapiens, 96 h, non-adherent serum-free sphere culture, 4 days, CellTiter-Glo, read-out: IC50 (Sphere IC50 value; concentration for 50% inhibition of cell proliferation)
Procedure: The reliable methods established for measuring the self-renewal ability of cells which is one of the CSC's properties include a method for measuring the sphere-forming ability of cancer cells in non-adherent condition in the absence of serum (Cancer Res 65, 5506-5511 (2005)). HCT-116 cells were available from the American Type Culture Collection (ATCC). HCT-116 cells were cultured at 37° C. and 5% CO2 using the McCoy's 5a medium containing 10% fetal bovine serum (FBS), 100 U/ml penicillin, and 100 μg/ml streptomycin. HCT-116 cells were seeded in a 384 Well Black Clear Bottom Ultra-Low Attachment Microplate (Corning Cat. No. 3827) in an amount of 350-800 cells/well using the DMEM/F12 medium containing 2% B27 supplement (GIBCO), 20 ng/mL epidermal growth factor (EGF) (peprotech), 10 ng/mL basic fibroblast growth factor (bFGF) (peprotech), 5 μg/mL insulin (Sigma), and 1% penicillin/streptomycin. The test compounds were added into each well to adjust the final concentration of DMSO to 0.1%, and the cells were cultured for 4 days. The number of viable cells in each well was then measured with CeilTiter-Glo® Luminescent Cell Viability Assay (Promega) to calculate the concentration of each test compound for 50% inhibition of cell proliferation (Sphere IC50 value; μmol/L).
The experiment of Test Example 1 was performed for the compound of each Example. The concentration of each test compound for 50% inhibition of cell proliferation (Sphere IC50 value; μmol/L) is shown in the following Table.

[1] = test system: differentiation-inducing cell aggregates formed from human iPS cells; experiment: Effect on differentiation-inducing cell aggregates (Cleaved Caspase-3 immunostaining); details: 24 hours, aggregates without treatment 19%
Procedure: Firstly, differentiation-inducing cell aggregates were prepared according to the following procedures.
According to a similar method to that of Test Example 2, the human iPS cells one day before subconfluence were cultured under feeder free conditions using the StemFit medium (AK03; Ajinomoto) in the presence of SB431542 (TGFβ signaling pathway inhibitory compound (TGFβR-i), 5 μmol/L) for 1 day. A 6-well plate (Iwaki, for cell culture, culture area 9.4 cm^2) was used as the plastic culture dish, and the number of plated cells for the human iPS cells dispersed into single cells was set 1.0×10^4. The cells were treated with cell dispersion using TrypLE Select (Life Technologies), and dispersed into single cells by pipetting operation. The cells were then suspended in 100 μl of a serum-free medium at 1.0×10^4 cells per well of a non-cell adhesive 96-well culture plate (PrimeSurface 96V-bottom plate, manufactured by SUMITOMO BAKELITE), and cultured in suspension at 37° C. and 5% CO2. As the serum-free medium (gfCDM+KSR), a serum-free medium which is 1:1 mixture of F-12 medium and IMDM medium supplemented with 10% KSR, 450 μmol/L 1-monothioglycerol, and 1×Chemically defined lipid concentrate was used. At the time of the start of suspension culture (day 0 after the start of suspension culture), Y27632 (final concentration: 20 μmol/L) was added to the medium, and the cells was further cultured using a medium containing Wnt signaling inhibitory compound (IWR-1e, 3 μmol/L).
After culturing at 37° C. and 5% CO2 for 24 hours, the medium was changed to the serum-free medium containing the present compound in a final concentration of 0.1 μmol/L or 1 μmol/L, or DMSO in a concentration equal thereto, and the cells were cultured for additional 24 hours. After 24 hours, the obtained cell aggregates were fixed with 4% paraformaldehyde to prepare frozen sections. […] The immunostained sections were observed by inverted fluorescence microscope (Keyence, BIREVO). In addition, the Cleaved Caspase-3 positive area was calculated using the NIH Image-J software.

human iPS cells = experiment: Evaluation of cytotoxic activity against iPS cells (DAPI nuclear staining, DAPI positive area); details: 24 hours
Procedure: Human iPS cells were cultured under feeder-free condition according to the method described in Scientific Reports, 4, 3594 (2014). The StemFit medium (AKO3N, Ajinomoto) was used as feeder-free medium, and Laminin511-E8 (Nippi) was used as feeder-free scaffold.
The subconfluent human iPS cells were washed with PBS and dispersed into single cells using TrypLE Select (Life Technologies). The human iPS cells were then seeded in a plastic culture dish coated with Laminin511-E8, and cultured under feeder-free conditions at 37° C. and 5% CO2 using the StemFit medium in the presence of Y27632 (ROCK inhibitory compound, 10 μmol/L). A 96-well plate (BD, for cell culture, culture area 0.35 cm^2) was used as the plastic culture dish, and the number of plated cells for the human iPS cells dispersed into single cells was set to 0.03×10^4. The medium was changed to Y27632-free StemFit medium 1 day after the seeding. Thereafter, the medium was changed to the Y27632-free StemFit medium once in 1 to 2 days. The cells were then cultured until subconfluent (60% of culture area is covered with the cells). To the human iPS cells was added the Stem Fit medium (AK03; Ajinomoto) to adjust the final concentrations of the compounds of Examples 1-2, 10-2, and 22 dissolved in DMSO to 10, 1, 0.1, and 0.01 μmol/L, and the cells were cultured for 24 hours.
After 24 hours, the medium was removed, the obtained cells were each fixed with 4% paraformaldehyde at 4° C. for 15 minutes, PBS solution containing DAPI (Sigma) was added thereto to perform nuclear staining for the cells, and then the cells were observed by inverted fluorescence microscope (Keyence, BIREVO). In addition, the DAPI positive area was calculated using the quantitative software of the microscope.

SMILES	IC50 (HCT-116 cells) [nM]	other results
CC(=O)Nc1ccc(/C=C/C(=O)Nc2cn(Cc3cccc(OC(F)(F)F)c3)cn2)cc1 [Example 3]	630	
CC(=O)Nc1ccc(/C=C/C(=O)Nc2cn(Cc3cc(F)c(F)c(F)c3)cn2)cc1 [Example 4]	< 10	
COc1ccc(C(=O)Nc2cn(Cc3cccc(Cl)c3)cn2)cc1OC.Cl [Example 10-2, N-[1-(3-Chlorobenzyl)-1H-imidazol-4-yl]-3,4-dimethoxybenzamide hydrochloride]	630	ratio of Cleaved Caspase-3 positive area in the cell aggregates ([1]; 1 μmol/L): 26%; ratio of viable cells to that of cells without treatment (human iPS cells; 1 μmol/L): 37%; ratio of viable cells to that of cells without treatment (human iPS cells; 10 μmol/L): 17%
N#Cc1ccc(/C=C/C(=O)Nc2cn(Cc3cccc(Cl)c3)cn2)cc1OCCO [Example 8]	80	
O=C(Nc1nc(CO)cs1)c1cn(Cc2cc(F)c(F)c(F)c2)cn1 [Example 16]	629	
CC(=O)Nc1ccc(/C=C/C(=O)Nc2cn(Cc3cccc(C(F)(F)F)c3)cn2)cc1.Cl [Example 1-2, (2E)-3-[4-(Acetylamino)phenyl]-N-(1-[3-(trifluoromethyl)benzyl]-1H-imidazol-4-yl)prop-2-enamide hydrochloride]		ratio of Cleaved Caspase-3 positive area in the cell aggregates ([1]; 0.1 μmol/L): 24%; ratio of Cleaved Caspase-3 positive area in the cell aggregates ([1]; 1 μmol/L): 27%; ratio of viable cells to that of cells without treatment (human iPS cells; 0.1 μmol/L): 53%; ratio of viable cells to that of cells without treatment (human iPS cells; 1 μmol/L): 25%; ratio of viable cells to that of cells without treatment (human iPS cells; 10 μmol/L): 14%; concentration at which cytotoxic activity against human iPS cells was found (human iPS cells; tested at 10, 1, 0.1 and 0.01 μmol/L): ≥ 100 nM
O=C(Nc1cn(Cc2cccc(C(F)(F)F)c2)cn1)c1ccc(CO)nc1 [Example 22, 6-(hydroxymethyl)-N-{1-[3-(trifluoromethyl)benzyl]-1H-imidazol-4-yl}nicotinamide]		ratio of viable cells to that of cells without treatment (human iPS cells; 0.1 μmol/L): 51%; ratio of viable cells to that of cells without treatment (human iPS cells; 1 μmol/L): 31%
COc1ccc(NC(=O)c2cn(Cc3cc(F)c(F)c(F)c3)cn2)cc1OC [Example 14]	210	
COc1ccc(/C=C/C(=O)Nc2cn(Cc3cccc(C(F)(F)F)c3)cn2)cc1OCCO [Example 7]	90	
O=C(/C=C/c1cccnc1)Nc1cn(Cc2cccc(Cl)c2)cn1 [Example 9, (2E)-N-(1-(3-Chlorobenzyl)-1H-imidazol-4-yl)-3-(pyridin-3-yl)prop-2-enamide]	890	
COc1ccc(C(=O)Nc2cn(Cc3cc(F)c(F)c(F)c3)cn2)cc1OC [Example 13]	60	
CC(=O)Nc1ccc(/C=C/C(=O)Nc2cn(Cc3cccc(Cl)c3)cn2)cc1 [Example 2]	220	
O=C(COc1ccc(CO)nc1)Nc1cn(Cc2cc(F)c(F)c(F)c2)cn1 [Example 17]	< 10	
COc1ccc(/C=C/C(=O)Nc2cn(Cc3cc(F)c(F)c(F)c3)cn2)cc1OCCO [Example 5, (E)-3-(3-(2-Hydroxyethoxy)-4-methoxyphenyl)-N-(1-(3,4,5-trifluorobenzyl)-1H-imidazol-4-yl)acrylamide]	60	
COc1ccc(/C=C/C(=O)Nc2cn(Cc3cccc(Cl)c3)cn2)cc1OCCO [Example 6, (2E)-N-[1-(3-Chlorobenzyl)-1H-imidazol-4-yl]-3-[3-(2-hydroxyethoxy)-4-methoxyphenyl]prop-2-enamide]	60	

Reference: patent US11434472B2, “Agent for removing undifferentiated iPS cells” (Sumitomo Pharma Co., Ltd., priority 2016, dated 2022)
